In data set [1] the target is T1, assembled tsyn (core aggregation domain of α-synuclein, amino acids 31-109) (Homo sapiens, UniProt P37840).
T1 construct: The core aggregation domain of α-synuclein (amino acids 31-109) was expressed with an N-terminal polyhistidine tag; polyhistidine (N); made in house; host or cells: E. coli
Put plainly: Fluorescence assay of disruption of assembled tsyn (thioflavine T / primulin). It is filed as biochemical. As to the method: (§1) α-Synuclein proteins (tsyn or fsyn) were incubated at 37° C. for the times indicated in Figure legends with mixing to induce fibril formation. In some cases, 50 μg/ml heparin was included to enhance fibril formation.
(§2) Samples of 10 μl were then diluted to 100 μl with water, plus thioflavine T or primulin at 1 μM, or 0.2 or 5 μM in some cases. Fluorescence excitation spectra were measured in 96 well plates in a Varian Carey Eclipse Fluorescence Spectrophotometer, with the emission wavelength at 480 nm. Excitation spectra were corrected for the signal measured without tsyn and the peak signal measured from the spectra. The data were normalised to the value measured without compound and P50 values measured from plots of normalised fluorescence against concentration of compound.
The effect of the compounds on thioflavine T and primulin fluorescence could be due to competition for the fluorescence ligand rather than disruption of the fibrils. To test this, the experiment was done at three different concentrations of fluorophore, since the P50 will be dependent on fluorophore concentration only if the effect is due to competition.

Data set [2] deals with T2, α-synuclein (fsyn binding to solid phase tsyn) (Homo sapiens, UniProt P37840).
T2 construct: full-length α-synuclein (fsyn) was added in the aqueous phase; The core aggregation domain of α-synuclein (amino acids 31-109) was expressed with an N-terminal polyhistidine tag; polyhistidine (N); made in house; host or cells: E. coli
Put plainly: Solid phase ELISA assay for synuclein-synuclein binding. As to the method:
A solid phase assay was used to measure self-association of α-synuclein. tsyn diluted in carbonate buffer (pH 8.5) was bound to the assay plate, and full-length α-synuclein (fsyn) was added in the aqueous phase. The aqueous phase binding buffer was 50 mM Na-phosphate, pH 6.0, 20 mM NaCl, 0.05% Tween-20, 1% fish skin gelatine.
The two α-synuclein proteins were also used in a binding assay. The tsyn is bound in the solid phase, and full-length fsyn is added in the aqueous phase. […]
In general terms: In an ELISA, binding on a coated surface is turned into a signal by an enzyme label.

The target of data set [3] is α-synuclein (SSFsyn) in NIE-115 cells (Homo sapiens, UniProt P37840). Put plainly: Cell based assay for α-synuclein aggregation (SSFsyn in NIE-115 cells differentiated with dbcAMP, immunoblot mAb 42). Set-up: species or system mouse. Conditions: for EC50: ratio of α-synuclein to non-specific band falls to 50% of dbcAMP alone, immunoblot mAb 42, read-out: EC50, inhibition of FSyn expression in NIE cells differentiated with dbcAMP. As to the method:
The cell based assay employed a mouse neuroblastoma cell line NIE-115 that had been engineered to express full-length α-synuclein incorporating an N-terminal signal sequence (SSfsyn) to target incorporation of the protein into the membrane (see WO02/059150). When the cells were differentiated with dibutyryl cyclicAMP (dbcAMP) (1 mM) expression of the α-synuclein protein was increased.
α-synuclein protein was detected by immunoblot using various anti-α-synuclein antibodies. These included: mAb 42 (BD Biosciences Cat No. 610787) that recognises an epitope within tsyn (residues 31-109 of α-synuclein). In addition to α-synuclein, mAb 42 also reacts non-specifically with a protein of higher molecular mass (the protein is not recognised by other anti-α-synuclein antibodies). This protein was used as an estimate of cell numbers as the level of this protein in cells correlates with cell density. Drugs were tested with these cells and an inhibitory activity (EC50) was calculated by determining the drug concentration in which the ratio of α-synuclein to the non-specific band fell to 50% of the value for cells treated with dbcAMP alone.
The timing of the addition of the dbcAMP and drug was varied and the length of time that the cells are left in the presence of drug+dbcAMP before collecting cells was also be varied.

The target of data set [4] is T3, assembled fsyn (full-length α-synuclein) (Homo sapiens, UniProt P37840).
T3 construct: Full-length α-synuclein (syn) was expressed without a tag, and purified by ion exchange chromatography; made in house; host or cells: E. coli
Put plainly: Fluorescence assay of disruption of assembled fsyn (thioflavine T / primulin). Type of data set: biochemical. As to conditions: assembled 47 h with heparin, compound 1 h, read-out: P50 for inhibition of α-synuclein-dependent fluorescence. As to the method:
as §1, §2

A further data set deals with parkinsonian tremor. As to conditions: cited from earlier work.
The mark [5] stands for this setting: tsyn-16 assembled with heparin (50 μg/ml), primulin 1 μM, mean ± SEM (n), read-out: P50 (μM) using primulin.
[6] abbreviates: tsyn-16 assembled with heparin (50 μg/ml), thioflavine T 1 μM, mean ± SEM (n), read-out: P50 (μM) using thioflavone T.
[7] abbreviates: 1 μM tsyn-16 (solid phase), 5 μM fsyn-20 (aqueous phase), 50 mM sodium phosphate pH 6.0, 20 mM NaCl, read-out: B50 (μM) in α-synuclein binding assay.
The mark [8] stands for this setting: assembled tsyn, primulin 0.2 μM, read-out: P50 (mean), effect of fluorophore concentration.
Setting [9] is: assembled tsyn, primulin 1.0 μM, read-out: P50 (mean), effect of fluorophore concentration.
Setting [10] is: assembled tsyn, primulin 5.0 μM, read-out: P50 (mean), effect of fluorophore concentration.
The mark [11] stands for this setting: assembled tsyn, thioflavine T 0.2 μM, read-out: P50 (mean), effect of fluorophore concentration.
Setting [12] is: assembled tsyn, thioflavine T 1.0 μM, read-out: P50 (mean), effect of fluorophore concentration.
Setting [13] is: assembled tsyn, thioflavine T 5.0 μM, read-out: P50 (mean), effect of fluorophore concentration.
[14] abbreviates: tsyn-13, primulin 1 μM, assembled 20 h with heparin, compound 1 h, read-out: P50 for inhibition of α-synuclein-dependent fluorescence.
[15] abbreviates: tsyn-13, thioflavine T 1 μM, assembled 20 h with heparin, compound 1 h, read-out: P50 for inhibition of α-synuclein-dependent fluorescence.

Like-named read-outs stand apart in the source and are kept apart here. Bounds are passed on as bounds.

In the case of `Cc1cc(N(C)C)cc2[s+]c3cc(N(C)C)cc(C)c3nc12` [DMMTC, 1,9-Dimethyl-methyl-thioninium chloride], the IC50 in data set [1] (setting [5]) was 20.7 ± 7.8 µM; in data set [1] (setting [6]), 0.2 µM; in data set [2] (setting [7]), 4.9 µM. For the same molecule, the “activity in the synuclein-synuclein binding assay” value in data set [2] is “active”. For the same molecule, in data set [3], the EC50 – broadly, the concentration that produces a half-maximal response – is 100 ± 20 nM. For the same molecule, the LD50 in the data set with NIE cells stood at 1.2 µM.

For the molecule `CCc1cc(N(CC)CC)cc2[s+]c3cc(N(CC)CC)cc(CC)c3nc12` [DEETC, 1,9-Diethyl-ethyl-thioninium chloride], the “activity in the synuclein-synuclein binding assay” value in data set [2] is “active”. In addition, in data set [2] (setting [7]), the IC50 was found to be 0.4 µM. Also, the EC50 in data set [3] stood at 4 ± 1 nM. The LD50 in the data set with NIE cells was 1.0 µM.

Consider `Cc1c(-c2ccccc2)oc2cc(O)ccc2c1=O` [7-hydroxy-3-methyl-flavone, reference compound], for which the IC50 in data set [2] (setting [7]) came to 141 µM.

For `COc1cc(-c2oc3cc(O)ccc3c(=O)c2O)ccc1O` [Geraldol, reference compound], the IC50 in data set [1] (setting [5]) is more than 50 µM; in data set [1] (setting [6]) it was more than 50 µM; in data set [2] (setting [7]) it was 60.8 µM.

For `COc1cc(O)c2c(=O)c(O)c(-c3ccc(O)c(O)c3)oc2c1` [Rhamnetin, reference compound], the figures for the IC50 in data set [1] (setting [5]), in data set [1] (setting [6]) and in data set [2] (setting [7]) were 34.7 µM, 39.4 µM and 11.4 ± 9.7 µM, respectively. For the same molecule, the “inhibitory activity in the cell based assay” value in data set [3] (NIE-115 SSFsyn cells with dbcAMP) is reported as “inhibitory”. Besides, the LD50 in the data set with NIE cells was 31 µM.

On to `CNc1ccc2nc3ccc(N(C)C)cc3[s+]c2c1` [Azure B, reference compound], for which the “activity in the synuclein-synuclein binding assay” value in data set [2] was “inactive”. In addition, the IC50 in data set [2] (setting [7]) was more than 500 µM. Besides, the EC50 in data set [3] turned out to be 250 nM. Moreover, the LD50 in the data set on NIE cells came to 0.8 µM.

With `O=c1c(O)c(-c2ccc(O)c(O)c2)oc2cc(O)ccc12` [Fisetin, reference compound], the IC50 in data set [2] (setting [7]) amounted to 88.2 µM.

Consider `O=c1c(O)c(-c2cc(O)c(O)c(O)c2)oc2cc(O)ccc12` [Robinetin, reference compound], for which the IC50 in data set [1] (setting [5]) worked out at 27.6 µM; in data set [1] (setting [6]), 21.1 µM; in data set [2] (setting [7]), 39.2 µM.

For the molecule `O=c1c(O)c(-c2ccc(O)c(O)c2)oc2ccccc12` [3,3′,4′-Trihydroxy-flavone, reference compound], the IC50 in data set [2] (setting [7]) worked out at 43.1 µM.

`CN(C)c1ccc2nc3ccc(N)cc3[s+]c2c1` [Azure A, reference compound]: the IC50 in data set [1] (setting [5]) is 17.9 ± 2 µM; in data set [1] (setting [6]), 3.8 ± 0.9 µM; in data set [2] (setting [7]), more than 500 µM. In addition, the “activity in the synuclein-synuclein binding assay” value in data set [2] was “inactive”. In addition, in data set [3], the EC50 worked out at 320 nM. In addition, the LD50 with NIE cells was 8.8 µM.

For the molecule `O=c1cc(-c2ccccc2)oc2cc(O)ccc12` [7-Hydroxy-flavone, reference compound], the IC50 in data set [1] is more than 50 µM; in data set [1] (P50 (μM) using primulin, tsyn-16 assembled with heparin (50 μg/ml), primulin 1 μM, mean ± SEM (n)), more than 50 µM; in data set [2] it was 35.3 µM.

With `CCN(CC)c1ccc2nc3ccc(N(CC)CC)cc3[s+]c2c1` [ETC, Ethyl-thioninium chloride], the IC50 in data set [1] (setting [8]) stood at 41.7 µM; in data set [1] (setting [9]) it was 34 µM; in data set [1] (setting [10]), 32.3 µM; in data set [1] (setting [11]), 3.2 µM; in data set [1] (setting [12]), 9 µM; in data set [1] (setting [13]), 17.6 µM. In addition, the IC50 came to 24.1 µM in data set [1] (setting [14]); 30.3 µM in data set [1] (setting [15]); 26 ± 6 µM in data set [1] (setting [5]); 7.3 ± 3.8 µM in data set [1] (setting [6]); 30.6 µM in data set [4] (fsyn-14, primulin); 25.3 µM in data set [4] (fsyn-14, thioflavine T). Also, the IC50 in data set [2] (setting [7]) came to 3.8 ± 0.3 µM. Also, the “activity in the synuclein-synuclein binding assay” value in data set [2] was “active”. The EC50 in data set [3] was 80 ± 20 nM. Also, the LD50 with NIE cells came out at 38 µM.

In the case of `CN(C)c1ccc2nc3ccc(N(C)C)cc3[s+]c2c1` [MTC, methyl-thioninium chloride], the IC50 was 41.7 µM in data set [1] (setting [8]); 35.1 µM in data set [1] (setting [9]); 31.2 µM in data set [1] (setting [10]); 11.6 µM in data set [1] (setting [11]); 12.7 µM in data set [1] (setting [12]); 20.2 µM in data set [1] (setting [13]). Further, the IC50 in data set [1] (setting [14]) was determined as 12.9 µM; in data set [1] (setting [15]), 18.5 µM; in data set [1] (setting [5]), 30.4 ± 3 µM; in data set [1] (setting [6]) it was 15.4 ± 3.7 µM; in data set [4] (fsyn-14, primulin), 23.5 µM; in data set [4] (fsyn-14, thioflavine T) it was 3.8 µM. Also, the IC50 in data set [2] (setting [7]) came to 131 ± 15 µM. In addition, in data set [2], the “activity in the synuclein-synuclein binding assay” value is reported as “active”. For the same molecule, the “tolerability of oral administration” value with parkinsonian tremor (oral 8 grains (=518 mg)/day) was “discontinued due to side effects”.

Regarding `O=c1cc(-c2ccccc2)oc2cc(O)c(O)c(O)c12` [Baicalein, reference compound], the IC50 in data set [1] (setting [5]) stood at 28.2 µM; in data set [1] (setting [6]) it was 47.6 µM; in data set [2] (setting [7]), 2.5 µM.

As to `CCN(CC)c1cc(C)c2nc3c(C)cc(N(CC)CC)cc3[s+]c2c1` [DMETC], the IC50 is 5 ± 0.9 µM in data set [1] (setting [5]), 0.9 ± 0.2 µM in data set [1] (setting [6]) and 0.5 ± 0.1 µM in data set [2] (setting [7]). Also, in data set [2], the “activity in the synuclein-synuclein binding assay” value is on record as “active”. For the same molecule, the EC50 in data set [3] amounted to 50 ± 40 nM. Moreover, the LD50 in the data set with NIE cells turned out to be 6 µM.

On to `Cc1cc2nc3ccc(N(C)C)cc3[s+]c2cc1N` [Tolonium chloride, Tolonium Chloride], for which the figures for the IC50 in data set [1] (setting [5]), in data set [1] (setting [6]) and in data set [2] (setting [7]) were 8.8 ± 3.3 µM, 1.5 ± 0.2 µM and 3.3 ± 0.3 µM, respectively. In data set [2], the “activity in the synuclein-synuclein binding assay” value is reported as “active”. Besides, the LD50 with NIE cells was 1.2 µM.

As for Thionine, the IC50 in data set [1] (setting [5]) stood at 23 ± 2.2 µM; in data set [1] (setting [6]), 3.8 ± 0.3 µM; in data set [2] (setting [7]) it was 32.2 ± 11.7 µM. In addition, the “activity in the synuclein-synuclein binding assay” value in data set [2] is “active”. Besides, the “effect on Parkinsonian tremor” value in the data set on parkinsonian tremor (4 individuals, MTC intravenously 1 or 2 mg/kg) was “gave no result”.

Take `CCc1cc(N(C)C)cc2[s+]c3cc(N(C)C)cc(CC)c3nc12` [DEMTC, 1,9-Diethyl-methyl-thioninium chloride]: the “activity in the synuclein-synuclein binding assay” value in data set [2] was “active”. Besides, in data set [2] (setting [7]), the IC50 was 0.8 ± 0.4 µM. In addition, the LD50 in the data set with NIE cells came to 3 µM.

The values above are taken from US8263589B2, “Inhibitors of protein aggregation” (Wista Laboratories Ltd., priority 2006, dated 2012).
